From PMC6199744, “Development of Chemical Proteomics for the Folateome and Analysis of the Kinetoplastid Folateome” (ACS Infectious Diseases, 2018) come the findings set out here.

Like-named read-outs stand apart in the source and are kept apart here.

Type in all cases: binding
The target of test [1] is T1, HeLa cell extract proteins (Homo sapiens, UniProt P22061).
T1 construct: endogenous in cells; host or cells: HeLa cell extract
Particulars: protein PCMT1; HeLa.

The target in test [2] is T2, HeLa cell extract proteins (Homo sapiens, UniProt P46976).
T2 construct: endogenous in cells; host or cells: HeLa cell extract
T2 sequence (P46976 1-350): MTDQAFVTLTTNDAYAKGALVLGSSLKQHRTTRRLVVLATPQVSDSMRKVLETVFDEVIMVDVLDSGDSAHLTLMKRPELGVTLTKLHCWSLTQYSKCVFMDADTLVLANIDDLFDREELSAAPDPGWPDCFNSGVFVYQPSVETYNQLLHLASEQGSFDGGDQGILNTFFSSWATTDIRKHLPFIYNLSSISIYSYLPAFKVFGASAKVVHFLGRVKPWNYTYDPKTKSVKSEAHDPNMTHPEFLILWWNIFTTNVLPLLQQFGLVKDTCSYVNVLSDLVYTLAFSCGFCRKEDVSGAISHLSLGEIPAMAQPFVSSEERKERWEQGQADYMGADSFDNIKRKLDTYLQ
Particulars: protein GYG1; HeLa.

Test [3] deals with T3, HeLa cell extract proteins (Homo sapiens, UniProt Q969Y2).
T3 construct: endogenous in cells; host or cells: HeLa cell extract
T3 sequence (Q969Y2 21-492): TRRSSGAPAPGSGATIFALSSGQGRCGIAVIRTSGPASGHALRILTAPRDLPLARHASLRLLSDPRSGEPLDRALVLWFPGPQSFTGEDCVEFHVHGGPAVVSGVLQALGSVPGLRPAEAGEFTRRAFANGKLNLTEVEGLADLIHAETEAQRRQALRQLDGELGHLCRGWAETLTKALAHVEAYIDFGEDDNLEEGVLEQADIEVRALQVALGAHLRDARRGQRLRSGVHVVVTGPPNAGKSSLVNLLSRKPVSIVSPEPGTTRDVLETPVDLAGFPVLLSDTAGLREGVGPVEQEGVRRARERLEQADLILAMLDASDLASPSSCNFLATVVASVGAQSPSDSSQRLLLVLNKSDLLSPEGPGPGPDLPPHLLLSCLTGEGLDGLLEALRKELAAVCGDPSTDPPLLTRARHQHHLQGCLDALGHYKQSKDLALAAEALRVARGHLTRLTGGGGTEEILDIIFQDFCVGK
Particulars: captured protein GTPBP3; HeLa.

In test [4] the target is T4, HeLa cell extract proteins (Homo sapiens, UniProt Q9BVK8).
T4 construct: endogenous in cells; host or cells: HeLa cell extract
T4 sequence (Q9BVK8 1-224): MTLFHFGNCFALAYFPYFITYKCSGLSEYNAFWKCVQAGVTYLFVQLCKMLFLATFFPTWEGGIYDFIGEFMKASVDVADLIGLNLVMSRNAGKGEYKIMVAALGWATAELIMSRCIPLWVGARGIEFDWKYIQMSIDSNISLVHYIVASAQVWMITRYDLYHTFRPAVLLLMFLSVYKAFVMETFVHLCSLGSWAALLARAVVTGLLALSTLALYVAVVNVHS
Particulars: HeLa; protein TMEM147.

Test [5] addresses T5, HeLa cell extract proteins (Homo sapiens, UniProt Q9NX61).
T5 construct: endogenous in cells; host or cells: HeLa cell extract
T5 sequence (Q9NX61 29-479): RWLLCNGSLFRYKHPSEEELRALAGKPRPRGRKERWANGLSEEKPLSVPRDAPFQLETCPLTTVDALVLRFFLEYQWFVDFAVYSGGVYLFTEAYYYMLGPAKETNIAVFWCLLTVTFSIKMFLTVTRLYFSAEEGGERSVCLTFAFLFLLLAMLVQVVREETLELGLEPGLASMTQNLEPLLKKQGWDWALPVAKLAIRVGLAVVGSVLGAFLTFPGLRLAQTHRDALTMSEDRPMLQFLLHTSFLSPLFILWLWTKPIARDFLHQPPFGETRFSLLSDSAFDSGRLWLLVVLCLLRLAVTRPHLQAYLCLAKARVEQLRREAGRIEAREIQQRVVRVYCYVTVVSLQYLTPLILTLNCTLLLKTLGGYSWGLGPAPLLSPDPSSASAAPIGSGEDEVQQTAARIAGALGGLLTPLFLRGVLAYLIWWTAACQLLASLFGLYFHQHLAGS
The following applies: captured protein TMEM161A; HeLa.

Test [6] addresses T6, HeLa cell extract proteins (Homo sapiens, UniProt O15160).
T6 construct: endogenous in cells; host or cells: HeLa cell extract

The target in test [7] is T7, HeLa cell extract proteins (Homo sapiens, UniProt O60232).
T7 construct: endogenous in cells; host or cells: HeLa cell extract
T7 sequence (O60232 1-199): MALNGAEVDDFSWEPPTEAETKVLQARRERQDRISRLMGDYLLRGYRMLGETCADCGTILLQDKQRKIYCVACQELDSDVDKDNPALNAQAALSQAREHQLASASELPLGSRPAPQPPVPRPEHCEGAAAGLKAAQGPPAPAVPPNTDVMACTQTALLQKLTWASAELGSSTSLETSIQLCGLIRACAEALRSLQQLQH

In test [8] the target is T8, HeLa cell extract proteins (Homo sapiens, UniProt P30046).
T8 construct: endogenous in cells; host or cells: HeLa cell extract
T8 sequence (P30046 whole entry): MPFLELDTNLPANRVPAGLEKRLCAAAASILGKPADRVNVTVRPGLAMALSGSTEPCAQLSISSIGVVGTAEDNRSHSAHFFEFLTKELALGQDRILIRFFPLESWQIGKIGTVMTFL

Test [9] deals with T9, HeLa cell extract proteins (Homo sapiens, UniProt Q9BTT0).
T9 construct: endogenous in cells; host or cells: HeLa cell extract
T9 sequence (Q9BTT0 whole entry): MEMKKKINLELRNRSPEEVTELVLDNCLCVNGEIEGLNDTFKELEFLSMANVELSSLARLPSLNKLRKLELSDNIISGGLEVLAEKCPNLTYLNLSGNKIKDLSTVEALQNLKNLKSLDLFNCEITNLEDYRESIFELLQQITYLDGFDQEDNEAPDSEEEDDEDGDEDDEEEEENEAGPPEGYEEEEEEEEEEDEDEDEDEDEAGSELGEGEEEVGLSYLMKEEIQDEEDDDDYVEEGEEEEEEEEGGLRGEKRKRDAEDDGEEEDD

T6 sequence (O15160 whole entry): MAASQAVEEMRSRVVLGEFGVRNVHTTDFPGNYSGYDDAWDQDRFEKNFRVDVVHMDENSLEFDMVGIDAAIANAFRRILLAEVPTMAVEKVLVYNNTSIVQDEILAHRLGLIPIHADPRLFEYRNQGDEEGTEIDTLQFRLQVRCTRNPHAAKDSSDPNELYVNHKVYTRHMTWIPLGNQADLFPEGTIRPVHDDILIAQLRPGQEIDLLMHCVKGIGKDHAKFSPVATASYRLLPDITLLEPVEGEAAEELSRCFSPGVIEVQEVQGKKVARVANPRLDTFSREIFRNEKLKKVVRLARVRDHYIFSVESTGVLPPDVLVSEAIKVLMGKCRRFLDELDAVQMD
T1 sequence (P22061 whole entry): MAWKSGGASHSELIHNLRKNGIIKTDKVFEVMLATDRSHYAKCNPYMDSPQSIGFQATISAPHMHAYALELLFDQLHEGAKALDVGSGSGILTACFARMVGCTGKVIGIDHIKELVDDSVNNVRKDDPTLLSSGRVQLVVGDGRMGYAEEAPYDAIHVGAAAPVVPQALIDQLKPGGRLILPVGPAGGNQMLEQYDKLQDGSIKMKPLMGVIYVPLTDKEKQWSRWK

For `Nc1nc2cccc(-c3ccccc3)c2n1Cc1ccc(Cl)c(Cl)c1` [compound 3], the “fold changes relative to vehicle control” value in [1] worked out at 0.88; in test [2], 0.95; in test [3] it was 0.95; in test [4], 0.96; in test [5], 0.94.
For the compound `NCCOCCOCC(=O)Nc1nc2ncc(CNc3ccc(C(=O)NC(CCC(=O)O)C(=O)O)cc3)nc2c(=O)[nH]1` (stereo not shown) [compound 6], the “fold changes relative to vehicle control” value in test [6] (protein POLR1C, HeLa) was 0.97; in [7] (protein SSSCA1, HeLa) it was 1.13; in test [8] (HeLa, captured protein DDT) it was 1.79; in test [9] (HeLa, protein ANP32E), 0.91.
`Nc1nc2[nH]cc(CCc3ccc(C(=O)N[C@@H](CCC(=O)O)C(=O)O)cc3)c2c(=O)[nH]1` [PTX, pemetrexed]: the “fold changes relative to vehicle control” value in test [6] is given as 0.9; in test [7] it was 0.94; in test [8], 1.49; in test [9], 0.76.
In the case of `Nc1nc2c(c(=O)[nH]1)N(C=O)C(CNc1ccc(C(=O)N[C@@H](CCC(=O)O)C(=O)O)cc1)CN2` (stereo partly shown) [LEU, leucovorin], the “fold changes relative to vehicle control” value is listed as 0.87 in [6] (protein POLR1C, HeLa); 0.95 in test [7] (protein SSSCA1, HeLa); 1.06 in [8] (HeLa, captured protein DDT); 0.89 in test [9] (HeLa, protein ANP32E).
Regarding `CCCCCCOc1ccc(Cc2cnc(N)nc2N)cc1` [compound 1], the “fold changes relative to vehicle control” value amounted to 0.92 in test [1]; 1.09 in test [2]; 0.4 in [3]; 0.72 in [4]; 0.76 in test [5].
As to `NCCCNc1ccc(C(=O)NC(CCC(=O)O)C(=O)O)cc1` (stereo not shown) [compound 7], the “fold changes relative to vehicle control” value in test [6] (protein POLR1C, HeLa) stood at 0.95; in test [7] (protein SSSCA1, HeLa) it was 1.07; in [8] (HeLa, captured protein DDT) it was 1.25; in test [9] (HeLa, protein ANP32E), 0.72.
Regarding `CCCCCCOc1cccc(Cc2cnc(N)nc2N)c1` [compound 2], the “fold changes relative to vehicle control” value in [1] amounted to 1.28; in test [2], 1.31; in test [3], 1.05; in [4], 0.97; in test [5] it was 1.02.
